Experimental data as given in US20250197409A1, “BIFUNCTIONAL COMPOUND AND PHARMACEUTICAL COMPOSITION COMPRISING THE BIFUNCTIONAL COMPOUND, AND METHOD FOR TREATING ANDROGEN RECEPTOR RELATED DISEASE BY USING THE SAME” (ANHORN MEDICINES CO., LTD., priority 2022, published 2025).
Read-outs that look alike come from different tables or passages of the source.

Target: T1, androgen receptor (Homo sapiens, UniProt P10275, T878A)
T1 construct: host or cells: LNCaP.FGC
Assay: Androgen receptor degradation assay using Western blot analysis
Format: cell-based
Method: Cells not treated with any of the above-mentioned compounds are used as a negative control.
The internal loading control GAPDH was detected using a mouse monoclonal antibody (1:5000) (GTX627408, GeneTex International Corp., HsinChu City, Taiwan R.O.C.) and a goat anti-mouse HRP-conjugated secondary antibody (1:5000 dilution) (C04001, Croyez Bioscience Co., Ltd., Taipei City, Taiwan R.O.C.).
AR remaining percentage was determined by the intensity difference of AR signals (each was normalized by the corresponding internal loading control GAPDH) between the protein samples from the untreated cells (100%) and those from the treated cells. “Cpd. #” indicates the compound number hereinabove.
In addition, several compounds were selected to prepare a treatment stock solutions at 100 nM in RPMI medium. The treatment stock solutions were separately serially diluted (10×) with RPMI medium for treating LNCaP.FGC cells seeded with 2×10^5 cells per well in 24-well tissue culture plates. A calibration curve was determined by the serial diluted samples for each compound, and the concentration needed for 50% AR degradation (AR DC50) for each compound was calculated.

[1] = 24 h, read-out: Androgen Receptor Remaining (%), LNCaP.FGC cells, 100 nM, 24 hr, normalized to GAPDH, untreated cells = 100%
[2] = read-out: AR DC50 (concentration needed for 50% AR degradation); LNCaP.FGC cells, serial 10x dilutions from 100 nM
[3] = 24 h, LNCaP.FGC cells, 100 nM, 24 hr, normalized to GAPDH, untreated cells = 100%; read-out: Androgen Receptor Remaining (%)
[4] = LNCaP.FGC cells, serial 10x dilutions from 100 nM; read-out: AR DC50 (concentration needed for 50% AR degradation)

T1 sequence (P10275 whole entry T878A): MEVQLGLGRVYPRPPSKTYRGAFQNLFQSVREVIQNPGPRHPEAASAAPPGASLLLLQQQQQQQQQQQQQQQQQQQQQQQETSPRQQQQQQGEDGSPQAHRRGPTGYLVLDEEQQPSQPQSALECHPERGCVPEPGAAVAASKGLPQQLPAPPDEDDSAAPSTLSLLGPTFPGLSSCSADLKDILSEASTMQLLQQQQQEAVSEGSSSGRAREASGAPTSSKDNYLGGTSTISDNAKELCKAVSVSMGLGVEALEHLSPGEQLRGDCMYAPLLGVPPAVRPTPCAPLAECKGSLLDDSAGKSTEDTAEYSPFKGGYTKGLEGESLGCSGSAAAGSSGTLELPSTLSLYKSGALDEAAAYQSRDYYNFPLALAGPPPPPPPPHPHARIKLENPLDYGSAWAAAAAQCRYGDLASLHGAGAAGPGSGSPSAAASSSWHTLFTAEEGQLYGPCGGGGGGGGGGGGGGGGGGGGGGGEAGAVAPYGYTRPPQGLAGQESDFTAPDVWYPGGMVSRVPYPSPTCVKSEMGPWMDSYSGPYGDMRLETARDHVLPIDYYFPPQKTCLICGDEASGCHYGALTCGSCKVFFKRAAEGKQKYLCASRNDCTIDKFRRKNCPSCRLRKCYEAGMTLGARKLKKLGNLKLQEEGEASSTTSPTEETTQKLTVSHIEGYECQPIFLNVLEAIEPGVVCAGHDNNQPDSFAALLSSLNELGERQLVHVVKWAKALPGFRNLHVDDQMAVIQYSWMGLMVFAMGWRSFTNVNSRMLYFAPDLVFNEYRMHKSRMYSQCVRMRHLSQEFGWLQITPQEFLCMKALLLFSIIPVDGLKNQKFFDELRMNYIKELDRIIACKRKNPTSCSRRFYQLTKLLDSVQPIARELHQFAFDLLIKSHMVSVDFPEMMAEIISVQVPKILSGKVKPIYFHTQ
T1 sequence (Q96SW2 whole entry partner): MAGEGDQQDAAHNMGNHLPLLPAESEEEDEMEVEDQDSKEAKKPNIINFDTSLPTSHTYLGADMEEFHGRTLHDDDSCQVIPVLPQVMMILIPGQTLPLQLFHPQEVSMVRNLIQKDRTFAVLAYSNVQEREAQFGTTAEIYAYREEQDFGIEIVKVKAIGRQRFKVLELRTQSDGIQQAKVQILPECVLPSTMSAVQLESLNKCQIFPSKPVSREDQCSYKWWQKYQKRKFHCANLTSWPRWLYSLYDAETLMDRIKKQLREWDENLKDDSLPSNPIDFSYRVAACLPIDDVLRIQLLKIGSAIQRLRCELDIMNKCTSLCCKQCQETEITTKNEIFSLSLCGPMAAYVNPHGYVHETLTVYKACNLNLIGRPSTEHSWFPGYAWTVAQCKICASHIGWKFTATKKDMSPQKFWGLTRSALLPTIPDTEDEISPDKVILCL

Row | remaining activity at 0.1 µM [3] [%] | DC50 [4] [µM] | SMILES | remaining activity at 0.1 µM [1] [%] | DC50 [2] [µM]
1 | – | – | CCn1c2c(c3ccc(OCCCN4CCN(c5ccc(C(=O)N[C@H]6CC[C@H](Oc7ccc(C#N)c(Cl)c7)CC6)nn5)[C@H](C)C4)cc31)C(=O)N(C1CCC(=O)NC1=O)C2=O (stereo partly shown) [Compound 98] | 26 | 0.025 to 0.1
2 | 80 | – | Cn1c2c(c3cccc(OCCCN4CCN(c5ccc(C(=O)N[C@H]6C(C)(C)[C@H](Oc7ccc(C#N)c(Cl)c7)C6(C)C)cc5)CC4)c31)C(=O)N(C1CCC(=O)NC1=O)C2=O (stereo partly shown) [Compound 25] | – | –
3 | 75 | – | Cn1c2c(c3ccc(OCC4CCN(c5ccc(C(=O)N[C@H]6CC[C@H](Oc7ccc(C#N)c(Cl)c7)CC6)cn5)CC4)cc31)C(=O)N(C1CCC(=O)NC1=O)C2=O (stereo partly shown) [Compound 35] | – | –
4 | – | – | CCn1c2c(c3cc(OCCN4CCN(c5ccc(C(=O)N[C@H]6C(C)(C)[C@H](Oc7ccc(C#N)c(Cl)c7)C6(C)C)cc5)CC4)ccc31)C(=O)N(C1CCC(=O)NC1=O)C2=O (stereo partly shown) [Compound 4] | 66 | –
5 | 32 | 0.025 to 0.1 | Cn1c2c(c3ccc(OCCN4CCN(c5ccc(C(=O)N[C@H]6CC[C@H](Oc7ccc(C#N)c(Cl)c7)CC6)nn5)CC4)cc31)C(=O)N(C1CCC(=O)NC1=O)C2=O (stereo partly shown) [Compound 3] | – | –
6 | – | – | CCn1c2c(c3ccc(OCCN4CCC5(CCN(c6ccc(C(=O)N[C@H]7CC[C@H](Oc8ccc(C#N)c(Cl)c8)CC7)nn6)C5)C4)cc31)C(=O)N(C1CCC(=O)NC1=O)C2=O (stereo partly shown) [Compound 133] | 1 | 0.01 to 0.025
7 | – | 0.01 to 0.025 | Cn1c2c(c3ccc(OC4CCN(CC5CCN(c6ccc(C(=O)N[C@H]7C(C)(C)[C@@H](Oc8ccc(C#N)c(Cl)c8)C7(C)C)cn6)CC5)CC4)cc31)C(=O)N(C1CCC(=O)NC1=O)C2=O (stereo partly shown) [Compound 222] | – | –
8 | – | – | CCn1c2c(c3ccc(OCCOC4CC5(CCN(c6ccc(C(=O)N[C@H]7CC[C@H](Oc8ccc(C#N)c(Cl)c8)CC7)nn6)CC5)C4)cc31)C(=O)N(C1CCC(=O)NC1=O)C2=O (stereo partly shown) [Compound 147] | 46 | 0.01 to 0.025
9 | – | – | CCn1c2c(c3ccc(OCCN4CCC5(CC4)CCN(c4ccc(C(=O)N[C@H]6CC[C@H](Oc7ccc(C#N)c(Cl)c7)CC6)nn4)CC5)cc31)C(=O)N(C1CCC(=O)NC1=O)C2=O (stereo partly shown) [Compound 182] | – | < 0.01
10 | – | – | CCn1c2c(c3cc(OCCN4CCC(C#Cc5ccc(C(=O)NC6C(C)(C)C(Oc7ccc(C#N)c(Cl)c7)C6(C)C)cc5)CC4)ccc31)C(=O)N(C1CCC(=O)NC1=O)C2=O (stereo not shown) [Compound 139] | 52 | 0.025 to 0.1
11 | – | – | CCn1c2c(c3ccc(OCCCCN4CCN(c5ccc(C(=O)N[C@H]6CC[C@H](Oc7ccc(C#N)c(Cl)c7)CC6)nn5)CC4=O)cc31)C(=O)N(C1CCC(=O)NC1=O)C2=O (stereo partly shown) [Compound 149] | 11 | –
12 | – | – | CCn1c2c(c3ccc(OCCCOC4CCN(c5ccc(C(=O)N[C@H]6CC[C@H](N(C)c7ccc(C#N)c(Cl)c7)CC6)nn5)CC4)cc31)C(=O)N(C1CCC(=O)NC1=O)C2=O (stereo partly shown) [Compound 155] | 19 | 0.01 to 0.025
13 | 30 | 0.01 to 0.025 | Cn1c2c(c3ccc(NC(=O)CN4CCN(c5ccc(C(=O)N[C@H]6C(C)(C)[C@H](Oc7ccc(C#N)c(Cl)c7)C6(C)C)cn5)CC4)cc31)C(=O)N(C1CCC(=O)NC1=O)C2=O (stereo partly shown) [Compound 42] | – | –
14 | – | – | CCn1c2c(c3ccc(OCCCN4CCN(c5ccc(C(=O)N[C@H]6CC[C@H](Oc7ccc(C#N)c(Cl)c7)CC6)nn5)CC4)cc31)C(=O)N(C1CCC(=O)NC1=O)C2=O (stereo partly shown) [Compound 205] | – | < 0.01
15 | – | – | C=Nc1ccc(O[C@H]2CC[C@H](NC(=O)c3ccc(N4CC5(CCN(CCCOc6ccc7c8c(n(CC(F)F)c7c6)C(=O)N(C6CCC(=O)NC6=O)C8=O)CC5)C4)nn3)CC2)cc1Cl (stereo partly shown) [Compound 93] | 11 | 0.025 to 0.1
16 | – | – | CCn1c2c(c3ccc(OCCCN4CCC5(CC4)CN(c4ccc(C(=O)N[C@H]6CC[C@H](N(C)c7ccc(C#N)c(Cl)c7)CC6)nn4)C5)cc31)C(=O)N(C1CCC(=O)NC1=O)C2=O (stereo partly shown) [Compound 107] | 15 | –
17 | – | 0.01 to 0.025 | Cn1c2c(c3ccc(OCCCN4CCC5(CC4)CCN(c4ccc(C(=O)N[C@H]6CC[C@H](Oc7ccc(C#N)c(Cl)c7)CC6)nn4)CC5)cc31)C(=O)N(C1CCC(=O)NC1=O)C2=O (stereo partly shown) [Compound 194] | – | –
